Literature values, collected in patent publication US8415449B2, “Bioresorbable polymers synthesized from monomer analogs of natural metabolites” (Rutgers, The State University of New Jersey, priority 2009, dated 2013).

Details: as part of the clinical evaluation of the sebacic acid anhydride copolymer

Q: Which toxicity finding does the source give for O=C(O)CCCCCCCCC(=O)O [sebacic acid] here?
A: nontoxic
